Key:
Conditions in all cases: 72 h
Caco-2 [1] = experiment: cell viability relative to DMSO; higher = less toxic
Calu-3 [2] = experiment: as above
HepG2 [3] = experiment: as above
U2OS [4] = experiment: as above
Vero E6 [5] = experiment: as above
Caco-2 [6] = experiment: relative viability EC50 (midpoint between 100% and the lowest measured viability); higher = less toxic
Calu-3 [7] = experiment: as above
HepG2 [8] = experiment: as above
U2OS [9] = experiment: as above
Vero E6 [10] = experiment: as above
Caco-2 [11] = experiment: drug sensitivity score (DSS) for viability; higher = more toxic; extreme values may be limits of the assay
Calu-3 [12] = experiment: as above
HepG2 [13] = experiment: as above
U2OS [14] = experiment: as above
Vero E6 [15] = experiment: as above

| SMILES | cell viability (Caco-2 [1]; 1 nM) | cell viability (Caco-2 [1]; 10 nM) | cell viability (Caco-2 [1]; 100 nM) | cell viability (Caco-2 [1]; 1000 nM) | cell viability (Caco-2 [1]; 10000 nM) | cell viability (Calu-3 [2]; 1 nM) | cell viability (Calu-3 [2]; 10 nM) | cell viability (Calu-3 [2]; 100 nM) | cell viability (Calu-3 [2]; 1000 nM) | cell viability (Calu-3 [2]; 10000 nM) | cell viability (HepG2 [3]; 1 nM) | cell viability (HepG2 [3]; 10 nM) | cell viability (HepG2 [3]; 100 nM) | cell viability (HepG2 [3]; 1000 nM) | cell viability (HepG2 [3]; 10000 nM) | cell viability (U2OS [4]; 1 nM) | cell viability (U2OS [4]; 10 nM) | cell viability (U2OS [4]; 100 nM) | cell viability (U2OS [4]; 1000 nM) | cell viability (U2OS [4]; 10000 nM) | cell viability (Vero E6 [5]; 1 nM) | cell viability (Vero E6 [5]; 10 nM) | cell viability (Vero E6 [5]; 100 nM) | cell viability (Vero E6 [5]; 1000 nM) | cell viability (Vero E6 [5]; 10000 nM) | relative viability EC50 (Caco-2 [6]) | relative viability EC50 (Calu-3 [7]) | relative viability EC50 (HepG2 [8]) | relative viability EC50 (U2OS [9]) | relative viability EC50 (Vero E6 [10]) | drug sensitivity score (Caco-2 [11]) | drug sensitivity score (Calu-3 [12]) | drug sensitivity score (HepG2 [13]) | drug sensitivity score (U2OS [14]) | drug sensitivity score (Vero E6 [15]) |
| --- | --- | --- | --- | --- | --- | --- | --- | --- | --- | --- | --- | --- | --- | --- | --- | --- | --- | --- | --- | --- | --- | --- | --- | --- | --- | --- | --- | --- | --- | --- | --- | --- | --- | --- | --- |
| O=C(COc1cccc2c(=O)[nH]ccc12)c1ccccc1 [UPF-1069] | 95.6% | 92.5% | 94.8% | 87% | 84.5% | 98.2% | 101% | 92.9% | 96.8% | 90.2% | 97% | 95.6% | 98.5% | 89% | 88% | 102% | 101% | 95.1% | 103% | 93.9% | 94.2% | 108% | 107% | 93.8% | 94.6% | > 10 µM | > 10 µM | > 10 µM | > 10 µM | > 10 µM | 0.8 | 0 | 0.1 | 0 | 0 |
| O=C(Nc1cc(-c2ccccc2)nn1-c1ccccc1)c1ccc([N+](=O)[O-])cc1 [VU29] | 106% | 96.2% | 102% | 95% | 96.6% | 102% | 102% | 107% | 98.5% | 111% | 105% | 112% | 108% | 100% | 90.2% | 110% | 101% | 107% | 99% | 99% | 100% | 96.4% | 101% | 94.2% | 88.6% | > 10 µM | > 10 µM | > 10 µM | > 10 µM | > 10 µM | 0 | 0 | 0 | 0 | 0.2 |
| Cc1cccc(COc2cccc(/C=C3\C(=O)NN(c4ccccc4)C3=O)c2)c1 [Y16] | 100% | 97.9% | 101% | 93.6% | 100% | 104% | 104% | 97.3% | 102% | 102% | 92.8% | 93.5% | 98.3% | 103% | 87.6% | 99.5% | 98.4% | 97.9% | 93.6% | 97.8% | 98.5% | 96.7% | 98.8% | 96.8% | 87.8% | > 10 µM | > 10 µM | > 10 µM | > 10 µM | > 10 µM | 0 | 0 | 0 | 0 | 0.2 |
| O=C(O)Cc1ccc(OCCNC[C@H](O)c2ccccc2)cc1 [ZD-2079] | 92.1% | 102% | 104% | 99.3% | 95% | 98.5% | 92.7% | 105% | 98% | 96.2% | 109% | 110% | 107% | 101% | 94.3% | 102% | 94.8% | 107% | 98.5% | 104% | 104% | 100% | 98.8% | 102% | 100% | > 10 µM | > 10 µM | > 10 µM | > 10 µM | > 10 µM | 0 | 0 | 0 | 0 | 0 |
| CC(=O)Nc1nnc(S(N)(=O)=O)s1 [acetazolamide] | 97.5% | 97.7% | 95.2% | 96.6% | 92.4% | 103% | 104% | 97.5% | 99.2% | 94.3% | 105% | 103% | 105% | 105% | 98% | 103% | 101% | 95.7% | 104% | 97.2% | 102% | 101% | 97.9% | 89.9% | 99.9% | > 10 µM | > 10 µM | > 10 µM | > 10 µM | > 10 µM | 0 | 0 | 0 | 0 | 0 |
| Nc1[nH]cnc2ncnc1-2 [adenine] | 91.8% | 95.9% | 104% | 88.5% | 114% | 91.3% | 93.3% | 112% | 108% | 90.7% | 77.5% | 98.7% | 92.8% | 92.5% | 93.2% | 93.8% | 103% | 98.4% | 99.5% | 110% | 104% | 103% | 101% | 91.7% | 98.2% | > 10 µM | > 10 µM | > 10 µM | > 10 µM | > 10 µM | 0 | 0 | 0 | 0 | 0 |
| COc1ccc2cccc(CCNC(C)=O)c2c1 [agomelatine] | 102% | 104% | 104% | 96.8% | 98% | 105% | 106% | 103% | 88.4% | 106% | 97.7% | 104% | 97.8% | 101% | 103% | 105% | 99% | 105% | 98.8% | 99.8% | 98% | 103% | 92.5% | 106% | 96.5% | > 10 µM | > 10 µM | > 10 µM | > 10 µM | > 10 µM | 0 | 0 | 0 | 0 | 0 |
| CCCCC[C@H](O)/C=C/[C@H]1[C@H](O)CC(=O)[C@@H]1CCCCCCC(=O)O [alprostadil] | 96.8% | 99% | 96.7% | 98.6% | 97.8% | 99% | 105% | 88.2% | 98.7% | 98.1% | 91.4% | 101% | 98.6% | 99.4% | 90.5% | 104% | 102% | 100% | 96.7% | 98.7% | 101% | 101% | 98.7% | 101% | 96.1% | > 10 µM | > 10 µM | > 10 µM | > 10 µM | > 10 µM | 0 | 0 | 0 | 0 | 0 |
| CCNC(=O)N1CCN(CCCC(c2ccc(F)cc2)c2ccc(F)cc2)CC1 [amperozide] | 96.5% | 96.6% | 85.6% | 94.1% | 81.4% | 97.6% | 103% | 95.7% | 106% | 94.4% | 98.5% | 102% | 91.9% | 103% | 93.7% | 97.5% | 103% | 94.4% | 100% | 95.3% | 98.7% | 98.6% | 100% | 99.2% | 94.1% | > 10 µM | > 10 µM | > 10 µM | > 10 µM | > 10 µM | 1 | 0 | 0 | 0 | 0 |
| C[C@]12CCC(=O)C[C@@H]1CC[C@@H]1[C@@H]2CC[C@]2(C)C=CC[C@@H]12 [androstenone] | 86.6% | 104% | 93.9% | 97.2% | 102% | 90.7% | 91.1% | 99.8% | 105% | 80.2% | 100% | 99.4% | 92.4% | 89.8% | 100% | 94.5% | 99.3% | 92.6% | 99% | 101% | 96.8% | 97.1% | 97.4% | 93.4% | 102% | > 10 µM | > 10 µM | > 10 µM | > 10 µM | > 10 µM | 0 | 0.1 | 0 | 0 | 0 |
| CCCn1c(=O)c2[nH]cnc2n(-c2ccc(Cl)cc2)c1=O [arofylline] | 87.3% | 97.6% | 94.4% | 87.9% | 95.5% | 97.7% | 95.4% | 103% | 96.8% | 92.2% | 104% | 102% | 99.1% | 100% | 101% | 103% | 99.1% | 102% | 96.8% | 98.9% | 108% | 108% | 101% | 98.3% | 96% | > 10 µM | > 10 µM | > 10 µM | > 10 µM | > 10 µM | 0 | 0 | 0 | 0 | 0 |
| CN1CCN(CCCCN2C(=O)CN(/N=C/c3ccc(-c4ccc(Cl)cc4)o3)C2=O)CC1 [azimilide] | 97.4% | 102% | 94.4% | 98.7% | 94.5% | 86.7% | 96.6% | 91% | 106% | 92.1% | 99.8% | 106% | 101% | 103% | 85.3% | 103% | 97.1% | 99.8% | 98.2% | 98.5% | 101% | 98.7% | 100% | 96.9% | 98.1% | > 10 µM | > 10 µM | > 10 µM | > 10 µM | > 10 µM | 0 | 0 | 0.1 | 0 | 0 |
| Cn1c(COc2ccc(CC3SC(=O)NC3=O)cc2)nc2ccccc2c1=O (stereo not given) [balaglitazone] | 91.7% | 106% | 90.7% | 96.4% | 85.3% | 95% | 95% | 103% | 103% | 84.3% | 88.5% | 104% | 85.7% | 100% | 99.2% | 96.4% | 95% | 97.3% | 91.8% | 92% | 98.2% | 94.8% | 88.6% | 93.4% | 101% | > 10 µM | > 10 µM | > 10 µM | > 10 µM | > 10 µM | 0.1 | 0.2 | 0 | 0 | 0 |
| CCc1oc2ccccc2c1C(=O)c1cc(Br)c(O)c(Br)c1 [benzbromarone] | 101% | 93.5% | 105% | 83.1% | 89.9% | 104% | 90.5% | 105% | 99.4% | 107% | 109% | 101% | 96.4% | 102% | 102% | 99.9% | 94.8% | 102% | 102% | 105% | 103% | 108% | 104% | 105% | 99.8% | > 10 µM | > 10 µM | > 10 µM | > 10 µM | > 10 µM | 1.7 | 0 | 0 | 0 | 0 |
